From US10285979B2, “Breast cancer therapeutic agent containing 5′-hydroxy-5-nitro-indirubin-3′-oxime as active ingredient” (ANYGEN CO., LTD., priority 2016, dated 2019)

How the values were obtained:
SK-MEL-2 = conditions: 10 μM; malignant melanoma cell line SK-MEL-2
Text: (§1) If the growth percent is 0%, it means that no further growth of cancer cells occurs, which is an ideal case.

K-562 = conditions: 10 μM; leukemia cell line K-562
Text: as §1

SW-620 = conditions: 10 μM; colorectal cancer cell line SW-620
Text: as §1

OVCAR-8 = conditions: 10 μM; ovarian cancer cell line OVCAR-8
Text: as §1

PC-3 = conditions: 10 μM; prostate cancer cell line PC-3
Text: as §1

HS 578T = conditions: 10 μM; breast cancer cell line HS 578T
Text: as §1

MDA-MB-435 = conditions: 10 μM; malignant melanoma cell line MDA-MB-435
Text: as §1

U251 = conditions: 10 μM; CNS cancer cell line U251
Text: as §1

NCI-H522 = conditions: 10 μM; non-small cell lung cancer cell line NCI-H522
Text: as §1

KM12 = conditions: 10 μM; colorectal cancer cell line KM12
Text: as §1

BT-549 = conditions: 10 μM; breast cancer cell line BT-549
Text: as §1

HOP-62 = conditions: 10 μM; non-small cell lung cancer cell line HOP-62
Text: as §1

ACHN = conditions: 10 μM; renal cell carcinoma cell line ACHN
Text: as §1

MOLT-4 = conditions: 10 μM; leukemia cell line MOLT-4
Text: as §1

NCI-H23 = conditions: 10 μM; non-small cell lung cancer cell line NCI-H23
Text: as §1

TK-10 = conditions: 10 μM; renal cell carcinoma cell line TK-10
Text: as §1

NCI/ADR/RES = conditions: 10 μM; ovarian cancer cell line NCI/ADR/RES
Text: as §1

SF-539 = conditions: 10 μM; CNS cancer cell line SF-539
Text: as §1

UACC-62 = conditions: 10 μM; malignant melanoma cell line UACC-62
Text: as §1

MDA-MB-231 = conditions: 10 μM; breast cancer cell line MDA-MB-231
Text: as §1

MCF-7 = conditions: 10 μM; breast cancer cell line MCF-7
Text: as §1

SN12C = conditions: 10 μM; renal cell carcinoma cell line SN12C
Text: as §1

HOP-92 = conditions: 10 μM; non-small cell lung cancer cell line HOP-92
Text: as §1

DU-145 = conditions: 10 μM; prostate cancer cell line DU-145
Text: as §1

SF-295 = conditions: 10 μM; CNS cancer cell line SF-295
Text: as §1

SNB-19 = conditions: 10 μM; CNS cancer cell line SNB-19
Text: as §1

MALME-3M = conditions: 10 μM; malignant melanoma cell line MALME-3M
Text: as §1

UO-31 = conditions: 10 μM; renal cell carcinoma cell line UO-31
Text: as §1

OVCAR-5 = conditions: 10 μM; ovarian cancer cell line OVCAR-5
Text: as §1

M14 = conditions: 10 μM; malignant melanoma cell line M14
Text: as §1

NCI-H460 = conditions: 10 μM; non-small cell lung cancer cell line NCI-H460
Text: as §1

OVCAR-3 = conditions: 10 μM; ovarian cancer cell line OVCAR-3
Text: as §1

HCT-15 = conditions: 10 μM; colorectal cancer cell line HCT-15
Text: as §1

HT29 = conditions: 10 μM; colorectal cancer cell line HT29
Text: as §1

NCI-H226 = conditions: 10 μM; non-small cell lung cancer cell line NCI-H226
Text: as §1

IGROV1 = conditions: 10 μM; ovarian cancer cell line IGROV1
Text: as §1

OVCAR-4 = conditions: 10 μM; ovarian cancer cell line OVCAR-4
Text: as §1

786-0 = conditions: 10 μM; renal cell carcinoma cell line 786-0
Text: as §1

HCT-116 = conditions: 10 μM; colorectal cancer cell line HCT-116
Text: as §1

SMILES: O=C1Nc2ccc([N+](=O)[O-])cc2C1=C1Nc2ccc(O)cc2C1=NO [AGM-130, (2′Z 3′E)-5′-hydroxy-5-nitro indirubin oxime]
- Growth percent (SK-MEL-2): −55.01%
- Growth percent (K-562): 20.90%
- Growth percent (SW-620): 3.18%
- Growth percent (OVCAR-8): 7.71%
- Growth percent (PC-3): 2.12%
- Growth percent (HS 578T): 1.21%
- Growth percent (MDA-MB-435): 9.35%
- Growth percent (U251): 0.60%
- Growth percent (NCI-H522): −79.07%
- Growth percent (KM12): −32.96%
- Growth percent (BT-549): 4.59%
- Growth percent (HOP-62): −9.77%
- Growth percent (ACHN): −25.79%
- Growth percent (MOLT-4): 2.17%
- Growth percent (NCI-H23): 3.19%
- Growth percent (TK-10): 49.89%
- Growth percent (NCI/ADR/RES): 42.05%
- Growth percent (SF-539): −34.15%
- Growth percent (UACC-62): −34.39%
- Growth percent (MDA-MB-231): 25.45%
- Growth percent (MCF-7): 2.75%
- Growth percent (SN12C): 23.68%
- Growth percent (HOP-92): −3.09%
- Growth percent (DU-145): 6.72%
- Growth percent (SF-295): 20.93%
- Growth percent (SNB-19): 17.47%
- Growth percent (MALME-3M): 11.73%
- Growth percent (UO-31): −1.14%
- Growth percent (OVCAR-5): 11.33%
- Growth percent (M14): 11.37%
- Growth percent (NCI-H460): −28.47%
- Growth percent (OVCAR-3): 4.31%
- Growth percent (HCT-15): 10.28%
- Growth percent (HT29): 69.21%
- Growth percent (NCI-H226): −4.70%
- Growth percent (IGROV1): 6.36%
- Growth percent (OVCAR-4): 19.65%
- Growth percent (786-0): 4.21%
- Growth percent (HCT-116): 2.29%
